Data reported in PubChem BioAssay AID1982 (Sanford-Burnham Center for Chemical Genomics, 2009).
Activity calls are given as the source filed them. How the calls were made is not given here.

What was measured:
Assay in all cases: kinase panel binding selectivity, selectivity assay, biochemical, KINOMEscan (AID 1982)
[1] = molecular target: Serine/threonine-protein kinase D3 (Homo sapiens) (UniProt O94806); conditions: KINOMEscan 353-kinase binding panel, qPCR; PRKD3; at 10 µM; active compounds read low
[2] = molecular target: Tyrosine-protein kinase Lyn (Homo sapiens) (UniProt P07948); conditions: KINOMEscan 353-kinase binding panel, qPCR, at 10 µM, active compounds read low
Tyrosine-protein kinase Lyn (Homo sapiens), sequence (P07948 whole entry, looked up): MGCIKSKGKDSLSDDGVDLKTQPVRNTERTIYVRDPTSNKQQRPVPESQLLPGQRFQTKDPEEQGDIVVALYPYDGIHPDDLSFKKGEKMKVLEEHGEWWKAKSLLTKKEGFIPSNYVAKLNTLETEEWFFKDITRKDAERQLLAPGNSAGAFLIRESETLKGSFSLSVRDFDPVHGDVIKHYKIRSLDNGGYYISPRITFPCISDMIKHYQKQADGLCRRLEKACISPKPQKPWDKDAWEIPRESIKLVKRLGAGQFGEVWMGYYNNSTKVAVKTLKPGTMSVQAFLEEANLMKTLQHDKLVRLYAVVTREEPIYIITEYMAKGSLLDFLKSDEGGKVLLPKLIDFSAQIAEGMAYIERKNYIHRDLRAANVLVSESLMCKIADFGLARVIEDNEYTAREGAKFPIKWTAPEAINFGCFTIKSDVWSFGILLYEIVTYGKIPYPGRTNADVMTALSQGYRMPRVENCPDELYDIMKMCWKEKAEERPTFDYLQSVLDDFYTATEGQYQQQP

[3] = tested on: PAK4; conditions: KINOMEscan 353-kinase binding panel, qPCR, at 10 µM, active compounds read low
[4] = tested on: ACVRL1; conditions: KINOMEscan 353-kinase binding panel, qPCR, at 10 µM, active compounds read low
[5] = tested on: ULK2; conditions: KINOMEscan 353-kinase binding panel, qPCR, at 10 µM, active compounds read low
[6] = tested on: ACVR1; conditions: KINOMEscan 353-kinase binding panel, qPCR, at 10 µM, active compounds read low
[7] = molecular target: Dual specificity protein kinase CLK3 (Homo sapiens) (UniProt P49761); conditions: KINOMEscan 353-kinase binding panel, qPCR, at 10 µM, active compounds read low
Dual specificity protein kinase CLK3 (Homo sapiens), sequence (P49761 whole entry, looked up): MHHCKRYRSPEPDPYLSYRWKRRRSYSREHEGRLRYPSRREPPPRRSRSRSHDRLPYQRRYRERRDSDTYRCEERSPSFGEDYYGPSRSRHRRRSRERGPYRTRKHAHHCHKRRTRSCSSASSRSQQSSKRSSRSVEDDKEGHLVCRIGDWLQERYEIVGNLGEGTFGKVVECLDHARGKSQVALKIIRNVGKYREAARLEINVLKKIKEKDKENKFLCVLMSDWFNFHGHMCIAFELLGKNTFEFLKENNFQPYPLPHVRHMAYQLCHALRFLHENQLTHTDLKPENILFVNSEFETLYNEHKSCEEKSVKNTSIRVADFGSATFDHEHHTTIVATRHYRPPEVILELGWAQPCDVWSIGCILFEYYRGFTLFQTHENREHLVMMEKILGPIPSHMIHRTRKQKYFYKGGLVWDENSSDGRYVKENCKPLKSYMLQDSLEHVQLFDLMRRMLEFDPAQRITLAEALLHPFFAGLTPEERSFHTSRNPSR

[8] = tested on: MYO3A; conditions: KINOMEscan 353-kinase binding panel, qPCR, at 10 µM, active compounds read low
[9] = molecular target: Serine/threonine-protein kinase PLK4 (Homo sapiens) (UniProt O00444); conditions: KINOMEscan 353-kinase binding panel, qPCR, at 10 µM, active compounds read low
[10] = tested on: MEK3; conditions: KINOMEscan 353-kinase binding panel, qPCR, at 10 µM, active compounds read low
[11] = tested on: DMPK; conditions: KINOMEscan 353-kinase binding panel, qPCR, at 10 µM, active compounds read low
[12] = tested on: ADCK3; conditions: KINOMEscan 353-kinase binding panel, qPCR, at 10 µM, active compounds read low
[13] = molecular target: Mitogen-activated protein kinase 1 (Homo sapiens) (UniProt P28482); conditions: KINOMEscan 353-kinase binding panel, qPCR; ERK2; at 10 µM; active compounds read low
[14] = tested on: PFTAIRE2; conditions: KINOMEscan 353-kinase binding panel, qPCR, at 10 µM, active compounds read low
[15] = tested on: PCTK3; conditions: KINOMEscan 353-kinase binding panel, qPCR, at 10 µM, active compounds read low
[16] = tested on: DDR1; conditions: KINOMEscan 353-kinase binding panel, qPCR, at 10 µM, active compounds read low
[17] = tested on: NEK7; conditions: KINOMEscan 353-kinase binding panel, qPCR, at 10 µM, active compounds read low
[18] = molecular target: Tyrosine-protein kinase Lck (Homo sapiens) (UniProt P06239); conditions: KINOMEscan 353-kinase binding panel, qPCR, at 10 µM, active compounds read low
[19] = molecular target: Leukocyte tyrosine kinase receptor (Homo sapiens) (UniProt P29376); conditions: KINOMEscan 353-kinase binding panel, qPCR; LTK; at 10 µM; active compounds read low
[20] = molecular target: Serine/threonine-protein kinase D1 (Homo sapiens) (UniProt Q15139); conditions: KINOMEscan 353-kinase binding panel, qPCR; PRKD1; at 10 µM; active compounds read low
[21] = tested on: MST4; conditions: KINOMEscan 353-kinase binding panel, qPCR, at 10 µM, active compounds read low
[22] = tested on: PRKR; conditions: KINOMEscan 353-kinase binding panel, qPCR, at 10 µM, active compounds read low
[23] = tested on: FGFR4; conditions: KINOMEscan 353-kinase binding panel, qPCR, at 10 µM, active compounds read low
[24] = tested on: MYLK2; conditions: KINOMEscan 353-kinase binding panel, qPCR, at 10 µM, active compounds read low
[25] = tested on: MST1; conditions: KINOMEscan 353-kinase binding panel, qPCR, at 10 µM, active compounds read low
[26] = molecular target: Mitogen-activated protein kinase 14 (Homo sapiens) (UniProt Q16539); conditions: KINOMEscan 353-kinase binding panel, qPCR; p38-alpha; at 10 µM; active compounds read low
Mitogen-activated protein kinase 14 (Homo sapiens), sequence (Q16539 whole entry, looked up): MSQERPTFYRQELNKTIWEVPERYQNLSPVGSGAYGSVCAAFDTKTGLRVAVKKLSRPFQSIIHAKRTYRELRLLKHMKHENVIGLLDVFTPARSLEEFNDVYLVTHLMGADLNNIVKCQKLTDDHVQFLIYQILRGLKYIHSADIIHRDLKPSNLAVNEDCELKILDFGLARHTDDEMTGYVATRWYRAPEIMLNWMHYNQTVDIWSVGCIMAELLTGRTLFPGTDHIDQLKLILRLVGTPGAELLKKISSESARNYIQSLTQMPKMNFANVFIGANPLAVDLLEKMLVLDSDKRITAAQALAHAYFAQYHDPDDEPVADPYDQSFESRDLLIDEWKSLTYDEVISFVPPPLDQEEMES

[27] = molecular target: Serine/threonine-protein kinase NLK (Homo sapiens) (UniProt Q9UBE8); conditions: KINOMEscan 353-kinase binding panel, qPCR, at 10 µM, active compounds read low
Serine/threonine-protein kinase NLK (Homo sapiens), sequence (Q9UBE8 whole entry, looked up): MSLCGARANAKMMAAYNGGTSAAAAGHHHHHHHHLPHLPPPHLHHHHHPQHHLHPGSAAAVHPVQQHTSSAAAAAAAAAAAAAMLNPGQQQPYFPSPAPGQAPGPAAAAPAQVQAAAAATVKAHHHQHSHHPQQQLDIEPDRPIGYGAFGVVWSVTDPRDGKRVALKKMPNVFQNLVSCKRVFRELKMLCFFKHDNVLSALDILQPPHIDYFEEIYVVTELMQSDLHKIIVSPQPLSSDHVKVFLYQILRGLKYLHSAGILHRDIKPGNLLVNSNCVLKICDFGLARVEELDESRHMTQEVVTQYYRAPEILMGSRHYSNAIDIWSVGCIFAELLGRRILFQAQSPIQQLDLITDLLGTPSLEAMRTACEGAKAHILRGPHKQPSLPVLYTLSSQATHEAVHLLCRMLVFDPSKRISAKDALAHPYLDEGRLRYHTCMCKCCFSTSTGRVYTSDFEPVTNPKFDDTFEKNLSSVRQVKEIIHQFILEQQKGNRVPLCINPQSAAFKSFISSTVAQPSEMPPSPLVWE

[28] = tested on: MAP4K3; conditions: KINOMEscan 353-kinase binding panel, qPCR, at 10 µM, active compounds read low
[29] = tested on: TTK; conditions: KINOMEscan 353-kinase binding panel, qPCR, at 10 µM, active compounds read low
[30] = molecular target: RAC-beta serine/threonine-protein kinase (Homo sapiens) (UniProt P31751); conditions: KINOMEscan 353-kinase binding panel, qPCR; AKT2; at 10 µM; active compounds read low
RAC-beta serine/threonine-protein kinase (Homo sapiens), sequence (P31751 whole entry, looked up): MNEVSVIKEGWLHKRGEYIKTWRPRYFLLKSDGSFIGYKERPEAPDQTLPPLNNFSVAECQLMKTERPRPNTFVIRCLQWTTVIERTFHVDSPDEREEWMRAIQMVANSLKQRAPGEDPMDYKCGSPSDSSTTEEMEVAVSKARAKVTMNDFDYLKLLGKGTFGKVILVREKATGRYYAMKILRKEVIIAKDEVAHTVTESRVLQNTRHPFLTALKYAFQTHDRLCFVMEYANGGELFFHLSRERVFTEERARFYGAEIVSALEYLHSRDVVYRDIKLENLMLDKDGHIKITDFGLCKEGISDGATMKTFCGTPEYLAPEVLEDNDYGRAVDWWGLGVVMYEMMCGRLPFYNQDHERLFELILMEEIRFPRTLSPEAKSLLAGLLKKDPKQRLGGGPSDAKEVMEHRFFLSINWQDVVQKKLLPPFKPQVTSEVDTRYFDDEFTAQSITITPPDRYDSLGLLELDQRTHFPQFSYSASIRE

[31] = tested on: MKNK1; conditions: KINOMEscan 353-kinase binding panel, qPCR, at 10 µM, active compounds read low
[32] = molecular target: Wee1-like protein kinase (Homo sapiens) (UniProt P30291); conditions: KINOMEscan 353-kinase binding panel, qPCR, at 10 µM, active compounds read low
[33] = molecular target: Receptor-type tyrosine-protein kinase FLT3 (Homo sapiens) (UniProt P36888); conditions: KINOMEscan 353-kinase binding panel, qPCR, at 10 µM, active compounds read low
Receptor-type tyrosine-protein kinase FLT3 (Homo sapiens), sequence (P36888 whole entry, looked up): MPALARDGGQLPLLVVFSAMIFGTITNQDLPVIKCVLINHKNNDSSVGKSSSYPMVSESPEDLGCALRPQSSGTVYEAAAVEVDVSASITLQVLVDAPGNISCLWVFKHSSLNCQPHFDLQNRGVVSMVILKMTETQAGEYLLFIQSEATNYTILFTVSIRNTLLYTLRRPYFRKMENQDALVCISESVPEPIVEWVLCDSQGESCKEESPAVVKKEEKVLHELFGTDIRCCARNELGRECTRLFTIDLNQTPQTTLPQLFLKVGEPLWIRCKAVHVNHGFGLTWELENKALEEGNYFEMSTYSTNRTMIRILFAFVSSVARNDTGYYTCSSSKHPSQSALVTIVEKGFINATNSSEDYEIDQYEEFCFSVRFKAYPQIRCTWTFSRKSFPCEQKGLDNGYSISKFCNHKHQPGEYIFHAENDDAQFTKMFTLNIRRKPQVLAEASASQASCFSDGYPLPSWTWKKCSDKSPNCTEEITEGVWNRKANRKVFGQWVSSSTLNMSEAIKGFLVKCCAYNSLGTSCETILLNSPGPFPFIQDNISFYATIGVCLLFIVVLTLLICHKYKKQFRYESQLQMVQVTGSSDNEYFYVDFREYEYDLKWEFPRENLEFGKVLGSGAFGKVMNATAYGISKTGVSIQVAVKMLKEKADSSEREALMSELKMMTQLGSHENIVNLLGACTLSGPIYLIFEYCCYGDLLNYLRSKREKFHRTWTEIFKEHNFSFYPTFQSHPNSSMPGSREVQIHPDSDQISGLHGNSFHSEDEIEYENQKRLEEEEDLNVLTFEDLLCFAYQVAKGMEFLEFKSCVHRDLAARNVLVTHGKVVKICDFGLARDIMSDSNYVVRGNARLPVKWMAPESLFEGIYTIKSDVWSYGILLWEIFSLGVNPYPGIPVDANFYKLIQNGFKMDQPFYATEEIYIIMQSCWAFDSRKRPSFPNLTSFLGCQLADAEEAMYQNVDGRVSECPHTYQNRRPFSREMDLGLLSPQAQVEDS

[34] = molecular target: Fibroblast growth factor receptor 1 (Homo sapiens) (UniProt P11362); conditions: KINOMEscan 353-kinase binding panel, qPCR; FGFR1; at 10 µM; active compounds read low
Fibroblast growth factor receptor 1 (Homo sapiens), sequence (P11362 whole entry, looked up): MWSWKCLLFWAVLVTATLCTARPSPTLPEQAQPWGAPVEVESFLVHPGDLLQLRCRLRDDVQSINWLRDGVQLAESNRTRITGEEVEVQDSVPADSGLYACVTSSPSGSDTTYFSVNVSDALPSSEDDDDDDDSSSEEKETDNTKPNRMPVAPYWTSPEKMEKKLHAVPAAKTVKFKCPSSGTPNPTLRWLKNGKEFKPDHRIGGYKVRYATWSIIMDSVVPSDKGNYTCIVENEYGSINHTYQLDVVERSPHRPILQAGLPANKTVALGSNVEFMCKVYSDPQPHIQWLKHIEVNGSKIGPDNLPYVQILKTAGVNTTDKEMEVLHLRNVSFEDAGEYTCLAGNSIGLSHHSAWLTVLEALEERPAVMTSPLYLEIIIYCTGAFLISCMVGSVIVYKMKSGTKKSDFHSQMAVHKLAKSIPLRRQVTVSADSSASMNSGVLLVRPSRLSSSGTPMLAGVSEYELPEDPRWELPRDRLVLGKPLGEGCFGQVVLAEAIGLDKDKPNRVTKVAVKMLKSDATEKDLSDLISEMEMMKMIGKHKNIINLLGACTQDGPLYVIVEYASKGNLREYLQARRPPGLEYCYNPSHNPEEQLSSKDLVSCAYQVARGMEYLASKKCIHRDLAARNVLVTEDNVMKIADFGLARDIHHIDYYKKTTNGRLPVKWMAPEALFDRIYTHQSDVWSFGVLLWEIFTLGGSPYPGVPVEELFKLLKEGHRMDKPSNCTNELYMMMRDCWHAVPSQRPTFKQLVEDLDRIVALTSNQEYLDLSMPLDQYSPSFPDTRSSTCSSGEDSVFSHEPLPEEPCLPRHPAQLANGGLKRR

[35] = tested on: PIK3CA; conditions: KINOMEscan 353-kinase binding panel, qPCR, at 10 µM, active compounds read low
[36] = molecular target: Cyclin-dependent kinase 19 (Homo sapiens) (UniProt Q9BWU1); conditions: KINOMEscan 353-kinase binding panel, qPCR; CDK11; at 10 µM; active compounds read low
[37] = molecular target: Ribosomal protein S6 kinase alpha-5 (Homo sapiens) (UniProt O75582); conditions: KINOMEscan 353-kinase binding panel, qPCR, at 10 µM, active compounds read low
Ribosomal protein S6 kinase alpha-5 (Homo sapiens), sequence (O75582 whole entry, looked up): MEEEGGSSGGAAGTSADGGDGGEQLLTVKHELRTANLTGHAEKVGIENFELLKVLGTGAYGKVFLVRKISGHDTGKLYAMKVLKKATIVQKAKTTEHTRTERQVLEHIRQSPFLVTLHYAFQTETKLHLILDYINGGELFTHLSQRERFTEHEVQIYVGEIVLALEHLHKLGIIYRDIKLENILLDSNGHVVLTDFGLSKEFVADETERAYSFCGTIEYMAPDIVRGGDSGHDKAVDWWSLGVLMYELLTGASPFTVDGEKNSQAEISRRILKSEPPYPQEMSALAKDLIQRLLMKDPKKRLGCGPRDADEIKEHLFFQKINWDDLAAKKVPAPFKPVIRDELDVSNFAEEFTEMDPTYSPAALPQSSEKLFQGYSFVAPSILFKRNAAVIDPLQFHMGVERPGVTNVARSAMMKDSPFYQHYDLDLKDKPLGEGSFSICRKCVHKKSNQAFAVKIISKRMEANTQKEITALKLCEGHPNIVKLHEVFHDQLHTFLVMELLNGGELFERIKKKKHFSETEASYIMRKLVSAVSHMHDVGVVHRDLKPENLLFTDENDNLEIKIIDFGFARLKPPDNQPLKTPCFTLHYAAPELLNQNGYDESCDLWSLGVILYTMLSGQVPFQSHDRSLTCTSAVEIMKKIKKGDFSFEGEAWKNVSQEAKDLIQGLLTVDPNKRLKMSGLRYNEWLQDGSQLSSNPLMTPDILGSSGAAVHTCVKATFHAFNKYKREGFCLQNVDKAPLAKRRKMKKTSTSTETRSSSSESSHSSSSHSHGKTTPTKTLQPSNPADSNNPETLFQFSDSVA

Measured: percent of control binding

Cc1cc2nc(NCCCO)n(CC(=O)c3cc(C(C)(C)C)c(O)c(C(C)(C)C)c3)c2cc1C
inactive: [1] 100% | [2] 88% | [3] 92% | [4] 100% | [5] 84% | [6] 89% | [7] 100% | [8] 89% | [9] 91% | [10] 100% | [11] 93% | [12] 72% | [13] 89% | [14] 53% | [15] 82% | [16] 100% | [17] 97% | [18] 100% | [19] 92% | [20] 100% | [21] 100% | [22] 98% | [23] 81% | [24] 97% | [25] 90% | [26] 96% | [27] 100% | [28] 100% | [29] 100% | [30] 85% | [31] 75% | [32] 90% | [33] 100% | [33]; FLT3(D835H) 100% | [33]; FLT3(D835Y) 99% | [33]; FLT3(ITD) 100% | [33]; FLT3(K663Q) 100% | [33]; FLT3(N841I) 94% | [34] 100% | [35] 78% | [36] 75% | [37]; RPS6KA5(Kin.Dom.1) 100% | [37]; RPS6KA5(Kin.Dom.2) 100%
